The nature of data set [1]: Dissociation constant was measured in water. It is filed as physicochemical.
Data set [2] in a line: Tested for inhibition of DNA synthesis at a dose range of 1.9-2.4 ug/ml after 30 min; range of 8-10 uM. It is filed as functional.

From ChEMBL document CHEMBL1128881, “The in vitro effects of three lysosomotropic detergents against three human tumor cell lines” (Bioorg Med Chem Lett, 1995) come the findings set out here.

A word on the pKa: it is the pH at which an ionisable group is half protonated. `CCCCCCCCCCCCn1ccnc1` [listing 1 of 2 here] yielded a pKa in data set [1] (buffer) of 7.5.

A word on the IC50: it is the point on the concentration scale where inhibition reaches its midpoint. A higher IC50 goes with weaker potency. In turn, `CCCCCCCCCCCCNC(=O)[C@@H](N)COC` yielded a pKa in data set [1] of 5.9. In data set [2], this compound displayed an IC50 of 10 µM. In data set [1] (buffer), `CCCCCCCCCCCCNC(=O)[C@@H](N)CO.Cl` displayed a pKa of 5.8. Turning to `CCCCCCCCCCCCn1ccnc1` [listing 2 of 2 here], the pKa in data set [1] (water, read-out: pKa) came to 6.3.

As for `CCCCCCCCCCCCNC(=O)[C@@H](N)CO`, the pKa in data set [1] (water, read-out: pKa) was determined as 7.5. In the case of `Cn1ccnc1` [1-METHYLIMIDAZOLE], the pKa in data set [1] (water, read-out: pKa) was determined as 7.
